Data published in patent US8066971B2, “Targeting pulmonary epithelium using ADRP” (Los Angeles Biomedical Reseach Institute at Harbor UCLA …, priority 2005, dated 2011).
“Also recorded” adds a separate entry of the source. Starred links: 1 amine or outer side, 2 acyl side, 3 side chain; linkers in the order of their positions; H or OH if unused. Positions of bridges follow the written chain, without caps; N, C: chain ends. Non-standard residues stand in square brackets, D forms with d. Residues, ends and D or L forms follow the SMILES beside them. Chains are numbered I, II in the order given. Actinocin(9to1) = Cc1c2oc3c(C)ccc(C(=O)[*:1])c3nc-2c(C(=O)[*:2])c(N)c1=O; NMeV = CN[C@H](C(=O)O)C(C)C; Sar = CNCC(=O)O

Tests used:
[1] = test system: SP-B protein levels in A549 cells; test: SP-B protein levels in A549 cells (Western blot); format: cell-based; conditions: cycloheximide 5 :g/ml, concomitant with ADRP-LDs
Experimental: (§1) Monolayer cultures of A549 cells were incubated with ADRP-LDs labeled with either tritium or GFP as follows: ^3H-labeled (10,000 dpm/min/20 μg triacylglycerol) ADRP-LDs were isolated from fetal rat lung fibroblasts, as described above. Where indicated, incubations were carried out in the presence of either actinomycin D or cyclohexamide to determine if de novo mRNA or protein synthesis, respectively, was involved in LD processing. Elsewhere, incubations were conducted in the presence of ADRP antibody (rabbit anti-ADRP IgG kindly provided by Dr. Constantine Londos, NIDDK) to determine the specificity of the ADRP effect on LD uptake. At the end of the incubation, the cells were processed for ^3H-satPC (Floros et al. (1987) J Biol Chem. 262(28): 13592-13598), expression of SP-B by RT-PCR and Western Blot (Rehan et al. (2002) Mol Genet Metab. 76(1): 46-56), or for confocal microscopy (see below for method).
(§2) Western blot and RT-PCR for SP-B were performed as described by Rehan et al. (2002) Mol Genet Metab. 76(1): 46-56.

[2] = test system: SP-B mRNA expression by A549 cells; test: SP-B mRNA expression by A549 cells (RT-PCR); format: cell-based; conditions: actinomycin D 1 μg/ml, concomitant incubation with LDs
Experimental: as §1, §2

Row | SMILES | effect on ADRP-LD-stimulated SP-B protein increase [1] | effect on ADRP induction of SP-B mRNA expression [2]
1 | C[C@@H]1C[C@@H]([C@H](O)CC2CC(=O)NC(=O)C2)C(=O)[C@@H](C)C1 [cycloheximide] | blocked; also recorded: inhibited | –
2 | Cc1c2oc3c(C)ccc(C(=O)N[C@@H]4C(=O)N[C@H](C(C)C)C(=O)N5CCC[C@H]5C(=O)N(C)CC(=O)N(C)[C@@H](C(C)C)C(=O)O[C@@H]4C)c3nc-2c(C(=O)N[C@@H]2C(=O)N[C@H](C(C)C)C(=O)N3CCC[C@H]3C(=O)N(C)CC(=O)N(C)[C@@H](C(C)C)C(=O)O[C@@H]2C)c(N)c1=O [Actinomycin D] (I: T[dV]P[Sar][NMeV] / II: T[dV]P[Sar][NMeV]; ester I:1-I:C, II:1-II:C; linker I:N-II:N via Actinocin(9to1)) | – | blocked
